Source: patent publication US7402696B2, “Benzene compounds” (Ajinomoto Co., Inc., priority 2004, dated 2008)

molecular target: T1, ACC (acetyl CoA carboxylase) purified from liver of male SD rat (Rattus norvegicus, UniProt P11497); assay: Measurement of ACC inhibition activity ([14C]-NaHCO3 incorporation); type: biochemical; settings: ACC inhibition activity rate at 1 μM; Table 2-III, Mode 3 acetylene/oxadiazole/thiazole compounds (numbers = x-III); read-out: ACC Inhibition (%)
T1 construct: applied to a monomeric avidin sepharose column, and washed with buffer B. The ACC was eluted with buffer B containing 2 mM d-biotin; from tissue; host or cells: liver of male SD rat
Description: A male SD rat was deprived of food for two days and then fed a high-sucrose diet (component) for two days. While anesthetized with ether, the descending vena cava was cut upon, the animal was bled, and the liver was rapidly recovered. In an ice-cooled buffer solution A (225 mM mannitol, 75 mM sucrose, 10 mM Tris-HCl (pH 7.5), 0.05 mM EDTA, 5 mM potassium citrate, 2.5 mM MgCl2, 10 mg/L pepstatin A, 10 mg/L leupeptin, 1 mM PMSF), the liver was homogenized with a polytone homogenizer. A quantity of buffer A nine times the weight of the liver was added, the mixture was centrifuged for 10 minutes at 1,000 g, the supernatant was recovered, and the supernatant was centrifuged for another 10 minutes at 17,000 g.
Ammonium sulfate was added to 35 percent saturation to the obtained supernatant. The mixture was stirred for 45 minutes and then centrifuged for 10 minutes at 17,000 g. Buffer solution B (100 mM Tris-HCl (pH 7.5), 500 mM NaCl, 1 mM EDTA, 0.1 mM DTT, 10 percent glycerol, 10 mg/L pepstatin A, 10 mg/L leupeptin, 0.5 mM PMSF) was added to the obtained precipitate and dissolved. The solution was then centrifuged for 20 minutes at 40,000 g. The supernatant was dialyzed overnight against buffer C (100 mM Tris-HCl (pH 7.5), 500 mM NaCl, 1 mM EDTA, 0.1 mM DTT, 5 percent glycerol).
The dialyzed supernatant was passed through a […], applied to a monomeric avidin sepharose column, and washed with buffer B. The ACC was eluted with buffer B containing 2 mM d-biotin.
(2 Measurement of ACC Inhibition Activity)
The compounds synthesized in the above-described embodiments were dissolved in DMSO and charged to glass vials. 250 μL of ACC-containing reaction solution (40 mM Tris-HCl (pH 7.5), 40 mM MgCl2, 40 mM sodium citrate, and 2 mM DTT) was added. The mixture was heated for 30 minutes at 37° C. in a thermostatic chamber and then cooled with ice. To reaction solution 1 was added 250 μL of reaction solution 2 containing [14C]—NaHCO3 (40 mM Tris-HCl (pH 7.5), 2 mM DTT, 8 mM ATP, 0.5 mM acetyl CoA) and the mixture was heated for 10 minutes at 37° C. 100 μL of 1N HCl was added to stop the reaction. Water in the reaction solution was removed with a centrifugal evaporator, a scintillator was added, the solid component was dissolved, and the 14C radioactivity was measured with a liquid scintillation counter. The ACC inhibition activity of each compound was calculated from the following equation and converted to the ACC inhibition activity rate (%) at 1 μM.
ACC inhibition rate (%)=(1−(a−c)/(b−c))×100 a. Radioactivity when test drug added b: Radioactivity when test drug not added c: Blank* *Reaction solution 1 to which 100 μL of 1N HCl was added before mixing reaction solution 1 and reaction solution 2

Row | inhibition at 1 µM [%] | Compound
1 | 51 | O=C(O)c1ccc(C(=O)Nc2ccc(C#Cc3cccc(C(F)(F)F)c3)cc2)c(C(=O)O)c1 [compound 13]
2 | 60 | O=C1c2ccccc2C(=O)N1c1cccc(C#Cc2cccc(C(F)(F)F)c2)c1 [compound 18]
3 | 56 | O=C(O)c1cccc(-c2nc(-c3ccc(C#Cc4cccc(C(F)(F)F)c4)cc3)no2)c1 [compound 27]
4 | 58 | O=C(O)c1ccc(-c2nc(-c3ccc(C#Cc4cccc(C(F)(F)F)c4)cc3)no2)cc1 [compound 28]
5 | 50 | O=C(O)c1ccccc1-c1csc(-c2ccc(C#Cc3cccc(C(F)(F)F)c3)cc2)n1 [compound 35]
6 | 54 | O=C(O)c1ccc(-c2csc(-c3ccc(C#Cc4cccc(C(F)(F)F)c4)cc3)n2)cc1 [compound 36]

same assay, conditions: ACC inhibition activity rate at 1 μM; Table 3-I, Mode 1 quinoline compounds (numbers = x-I); read-out: ACC Inhibition (%)

Row | inhibition at 1 µM [%] | Compound
7 | 48 | CCCCS(=O)(=O)NC(=O)c1ccccc1NC(=O)c1ccc2nc(-c3cccc(OC(F)(F)F)c3)ccc2c1 [compound 13]

same assay, conditions: ACC inhibition activity rate at 1 μM; Table 4-IV, Mode 4 benzenediamine compounds (numbers = x-IV); read-out: ACC Inhibition (%)

Row | inhibition at 1 µM [%] | Compound
8 | 86 | CCCCCC(=O)NS(=O)(=O)c1ccccc1NC(=O)c1ccc(Nc2ccc(C(F)(F)F)cc2)c(NC(=O)c2cc(C(F)(F)F)cc(C(F)(F)F)c2)c1 [compound 16]
9 | 85 | CCCCCC(=O)NS(=O)(=O)c1ccccc1NC(=O)c1ccc(NCCC(C)C)c(NC(=O)c2cc(C(F)(F)F)cc(C(F)(F)F)c2)c1 [compound 20]
10 | 74 | CCCCCC(=O)NS(=O)(=O)c1ccccc1NC(=O)c1ccc(Nc2ccccc2)c(NC(=O)c2ccccc2)c1 [compound 23]
11 | 97 | CCCCCC(=O)NS(=O)(=O)c1ccccc1NC(=O)c1ccc(Nc2ccccc2)c(NC(=O)c2ccc(C(F)(F)F)cc2)c1 [compound 25]
12 | 78 | CCCCCC(=O)NS(=O)(=O)c1ccccc1NC(=O)c1ccc(Nc2ccccc2)c(NC(=O)c2cc(C(F)(F)F)cc(C(F)(F)F)c2)c1 [compound 26]
13 | 91 | CCCCCC(=O)NS(=O)(=O)c1ccccc1NC(=O)c1ccc(Nc2ccc(C(F)(F)F)cc2)c(NC(=O)c2cccc(C(F)(F)F)c2)c1 [compound 27]
14 | 92 | CCCCCC(=O)NS(=O)(=O)c1ccccc1NC(=O)c1ccc(Nc2ccc(C(F)(F)F)cc2)c(NC(=O)c2ccc(C(F)(F)F)cc2)c1 [compound 28]
15 | 72 | CCCCCC(=O)NS(=O)(=O)c1ccccc1NC(=O)c1ccc(Nc2ccc(C(F)(F)F)cc2)c(NC(=O)C2CCCCC2)c1 [compound 31]
16 | 61 | CCCCCC(=O)NS(=O)(=O)c1ccccc1NC(=O)c1ccc(Nc2ccc(C(F)(F)F)cc2)c(NC(=O)c2ccncc2)c1 [compound 33]
17 | 67 | CCCCCC(=O)NS(=O)(=O)c1ccccc1NC(=O)c1ccc(Nc2ccc(C(F)(F)F)cc2)c(NC(=O)c2cccs2)c1 [compound 34]
18 | 91 | CCCCCC(=O)NS(=O)(=O)c1ccccc1NC(=O)c1ccc(Nc2ccc(C(F)(F)F)cc2)c(NC(=O)OCc2ccccc2)c1 [compound 35]
19 | 87 | CC(C)CCNc1ccc(-c2noc(-c3cccc(C(=O)NS(=O)(=O)c4ccccc4)c3)n2)cc1[N+](=O)[O-] [compound 36]
20 | 86 | CC(C)CCN(C)c1ccc(-c2noc(-c3cccc(C(=O)NS(=O)(=O)c4ccccc4)c3)n2)cc1[N+](=O)[O-] [compound 37]
21 | 99 | CC(C)CCN(C)c1ccc(-c2noc(-c3cccc(C(=O)NS(=O)(=O)c4ccccc4)c3)n2)cc1NC(=O)c1cccc(C(F)(F)F)c1 [compound 39]
22 | 87 | CC(C)CCN(C)c1ccc(-c2noc(-c3cccc(C(=O)NS(=O)(=O)c4ccccc4)c3)n2)cc1NC(=O)c1ccccc1 [compound 40]
23 | 85 | CC(C)CCN(C)c1ccc(-c2noc(-c3cccc(C(=O)NS(=O)(=O)c4ccccc4)c3)n2)cc1NC(=O)C1CCCCC1 [compound 41]
24 | 76 | CCC(CC)C(=O)Nc1cc(-c2noc(-c3cccc(C(=O)NS(=O)(=O)c4ccccc4)c3)n2)ccc1N(C)CCC(C)C [compound 42]
25 | 83 | CC(C)CCN(C)c1ccc(-c2noc(-c3cccc(C(=O)NS(=O)(=O)c4ccccc4)c3)n2)cc1NC(=O)c1cccs1 [compound 43]
